Measurements taken from patent US20010049372A1, “Antiviral nucleoside analogues” (BioChem Pharma Inc., priority 1998, published 2001).
Like-named read-outs stand apart in the source and are kept apart here.

Experiments:
Assay type in all cases: cell-based
[1] = Cellular toxicity by WST-1 staining; details: human, CBMCs
Method: The cellular toxicity of the compounds were assessed on various cells using [^3H]-thymidine uptake. Various cells, including Molt-4, HT1080, DU-145, HepG-2 and HSF, were plated at a concentration of 1-2×10^3 cells per well (96 well plates). After a 24 hr incubation period, 10-fold serial diluted compounds (b 10^−4 M to 10^−10 M) were added to the culture medium and the cells were further incubated for 72 hrs. [^3H]-thymidine was added during the final 18 hr incubation period. After incubation with the [^3H]-thymidine, the cells were washed once with PBS, treated with trypsin if the cells were adherent, and then resuspended in water (hypotonic lysing of cells). The cellular extract was applied directly to a Tomtec Harvester 96. Using this instrument the extracted DNA is adsorbed onto filters, washed and the incorporated [^3H]-thymidine is then counted. The 50% cytotoxic concentration (CC50) was determined by comparing the radioactive counts per minute of the samples in the presence of the compounds against the control. The cellular toxicity of the compounds was also tested by WST-1 staining through assessing proliferation of MT-2, H9, Jurkat, U937, and CBMCs. The established cell lines were cultured in RPMI medium in 96-well plates at a density of 5×10^4 cells/well while CBMCs were plated at a concentration of 0.5×10^6/well. A 10-fold serial diluted (10^−4-10^−7 M) compound was added at day zero. At day 4, the cells were passaged by changing half medium containing appropriately diluted compound. The cell activities were assessed at day 7 using the WST-1 reagent (Boehringer Mannheim) following the protocol provided by the supplier.
In the WST-1 staining experiments, cell lines were cultured in RPMI medium in 96-well plates at a density of 5×10^4 cells/well. CBMCs were plated at a concentration of 0.5×10^6/well. Compounds (10^−4-10^−7 M) were added at day zero. Cell viability was assessed on day 7 using the WST-1 reagent (Boehringer Mannheim) following the protocol provided by the supplier.

HIV-19881 = experiment: Anti-HIV-1 assay, non-syncytium inducing strain (p24); details: Human immunodeficiency virus 1, PBMC; HIV-19881, PBMCs, determined by p24
Method: (§1) ANTIVIRAL ASSAYS. The anti-HIV-1 activity of the compound A (−) were assessed by employing HIV-1IIIB in a variety of cell types as previously described (Gu et al., 1992, 1994, 1999; Rando et al., 1995; Salomon et al., 1994). Briefly, cells were incubated with virus at a multiplicity of infection (MOI) of 0.005 for T cell assays and an MOI of 0.5 for monocytic cell assays for 3 hrs. Unbound virus was then removed by washing the cells, followed by seeding the cells into a 96-well plate. The infected cells were cultured in the presence of a serial concentrations of the test compound for 5-7 days. The anti-HIV-1 efficacy was determined by testing for HIV-1 RT activity or p24 level in the cell culture supernatants. All assays were performed in duplicate. Zidovudine and/or lamivudine were used as controls in each experiment.
Furthermore, antiretroviral activity of the compound A (−) was also assessed using different types of HIV-1 strains. […]

[2] = tested on: Zidovudine^R/Lamivudine^R (3) clinical HIV-1 isolates (third group of Table 7); experiment: microbe, parasite or virus in culture
Method: as §1, with “The anti-HIV-1 activity of the compound A (−) were assessed by employing HIV-1IIIB in a variety of cell types as previously described (Gu et al., 1992, 1994, 1999; Rando et al., 1995; Salomon et al., 1994).” left out
Clinical strains were isolated from PBMCs of HIV-1 infected individuals through co-culture with PBMCs from normal dornors.

HSF = experiment: Cellular toxicity by [3H]-thymidine uptake; details: Table 14; 72 hrs; read-out: CC50 (μM) [^3H]TTP incorporation in: HSF
Procedure, shortened: (§2)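 Cells plated at 1-2×10^3/well, pre-incubated 24 h, then exposed 72 h to 10-fold serial compound dilutions (10^−4 M to 10^−10 M). [3H]-thymidine was added for the final 18 h and DNA incorporation counted after hypotonic lysis and harvesting. CC50 derived from cpm relative to untreated controls.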

K65R = experiment: Recombinant drug resistant HIV-1 variants (RT activity); details: Human immunodeficiency virus 1
Method: as §1
Recombinant HIV-1 variants were prepared by introducing the designed mutations into HXB2-D by site-directed mutagenesis as described (Gu et al. 1992, 1994). The virus stocks were prepared by transfecting MT-4 cells with infectious viral DNA constructs. Antiviral activity of the compound A (−) was evaluated as described in example 10.

HepG2 cells = experiment: Mitochondria DNA toxicity assay; details: 28 days, up to 100 μM, the highest concentration tested (FIG. 1)
Method: Mitochondria DNA (mtDNA) toxicity of the compound A (−) was tested in HepG2 cells. The cells were cultured for 28 days under the compound treatment. Th cells were passaged once a week. However, the cell culture medium containing proper concentration of the compound was changed twice a week. Zalcitabine was used as a control. The toxicity was determined by measuring content ratio of mtDNA and nuclear DNA (28s rDNA) by a southern hybridization assay (de Muys et al., 1999). […]

Molt-4 = experiment: Cellular toxicity by [3H]-thymidine uptake; details: Table 14; 72 hrs; read-out: CC50 (μM) [^3H]TTP incorporation in: Molt4
Procedure, shortened: as §2

HT1080 = experiment: Cellular toxicity by [3H]-thymidine uptake; details: Table 4; 72 hrs
Procedure, shortened: as §2

HepG-2 = experiment: Cellular toxicity by [3H]-thymidine uptake; details: Table 4; 72 hrs
Procedure, shortened: as §2

[3] = Human immunodeficiency virus 1, read-out: EC50 (μM), mean EC50 values
[4] = Human immunodeficiency virus 1, read-out: EC50 (μM), ranges of EC50s of the isolates in the same group

Structure (SMILES)	CC50 at 7 days ([1]; Table 4, day 7, read-out: CC50 (μM) WST-1 CBMC) [µM]	EC50 (HIV-19881) [nM]	EC50 [2, 3] [µM]	EC50 [2, 4] [µM]	CC50 (HSF) [µM]	EC50 (K65R) [nM]	CC50 at 7 days ([1]; Table 14, day 7, read-out: CC50 (μM) WST-1 CBMC) [µM]	mtDNA toxicity (content ratio of mtDNA and nuclear DNA, southern hybridization) (HepG2 cells)	CC50 (Molt-4) [µM]	CC50 (μM) [^3H-]TTP incorporation in: HT1080 (HT1080)	CC50 (μM) [^3H-]TTP incorporation in: HepG2 (HepG-2)
Cc1cn([C@H]2C[C@H](N=[N+]=[N-])[C@@H](CO)O2)c(=O)[nH]c1=O [Zidovudine, zidovudine]	74	1.7	0.83	0.25 to 1.74	> 10						
Nc1nc(NC2CC2)c2ncn([C@H]3CO[C@@H](CO)O3)c2n1 [Compound A (-), (−)-(2R,4R)-2-hydroxymethyl-4-(2′-amino-6′-cyclopropylamino-purine-9′-yl)-1,3-dioxolane]		590	0.19	0.066 to 0.33		1030	> 100	did not show significant mtDNA toxicity			
Nc1ccn([C@@H]2CS[C@H](CO)O2)c(=O)n1 [Lamivudine, lamivudine]						4310			> 100	>500/100	350/100
